Laboratory results reported in PubChem BioAssay AID248 (DTP/NCI, 2004).
Where “and” joins values, the source holds several entries; their conditions need not be identical. Identical values can stand only once. Toxic doses and inconclusive results are not listed. Rule as the data show it: active = T/C of 150% or more; inactive = T/C below 125%. Bridge positions count the residues as written; N and C are the ends. Square brackets hold non-standard residues; d marks the D form. Peptide text beside a SMILES is read from it. NMeV = CN[CH](C(=O)O)C(C)C; Sar = CNCC(=O)O

System: L1210 leukemia ip in BDF1 mice, survival T/C
Assay: NCI In Vivo Anticancer Drug Screen. Data for tumor model L1210 Leukemia (intraperitoneal) in B6D2F1 (BDF1) mice
Details: endpoint: mean survival time, higher = longer survival
Procedure, shortened: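 Each compound was tested against a transplantable tumor grown in mice. The endpoint was survival, with treated animals benchmarked against vehicle controls as a simple ratio.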

[1] = dose: 100.0 mg/kg/injection, schedule: Q04DX003 (ip), vehicle: saline with Tween-80
[2] = dose: 200.0 mg/kg/injection, schedule: Q04DX003 (ip), vehicle: saline with Tween-80
[3] = dose: 400.0 mg/kg/injection, schedule: Q04DX003 (ip), vehicle: saline with Tween-80
[4] = dose: 12.5 mg/kg/injection, schedule: Q01DX009 (ip), vehicle: saline
[5] = dose: 100.0 mg/kg/injection, schedule: Q04DX003 (ip), vehicle: saline

Measured: T/C

CN1CCC(c2ccccc2)(c2ccccc2)OC1
inactive: [1] 94 % of control

COc1ccc(/C=C(C)/C=N/NC(=O)c2ccncc2)cc1OC
inactive: [1] 98 % of control | [2] 97 % of control | [3] 103 % of control

CCCC[n+]1cccc2ccccc21
inactive: dose: 25.0 mg/kg/injection, schedule: Q01DX001 (ip), vehicle: Klucel (hydroxypropylcellulose) (HPC) 105 % of control | dose: 50.0 mg/kg/injection, schedule: Q01DX001 (ip), vehicle: Klucel (hydroxypropylcellulose) (HPC) 100 % of control | dose: 100.0 mg/kg/injection, schedule: Q01DX001 (ip), vehicle: carboxymethylcellulose (CMC) 96 % of control

CC1(C)C(N2CCCC2)N(C(=O)c2ccccc2)SC12c1ccccc1-c1ccccc12 (centres undefined)
inactive: dose: 100.0 mg/kg/injection, schedule: Q04DX002 (ip), vehicle: Klucel (hydroxypropylcellulose) (HPC) 102 % of control | dose: 200.0 mg/kg/injection, schedule: Q04DX002 (ip), vehicle: Klucel (hydroxypropylcellulose) (HPC) 105 % of control | dose: 400.0 mg/kg/injection, schedule: Q04DX002 (ip), vehicle: Klucel (hydroxypropylcellulose) (HPC) 98 % of control

NNCCc1ccccc1
inactive: dose: 6.25 mg/kg/injection, schedule: Q01DX009 (ip), vehicle: saline 105 % of control | [4] 101 % of control | dose: 25.0 mg/kg/injection, schedule: Q01DX009 (ip), vehicle: saline 95 % of control | dose: 25.0 mg/kg/injection, schedule: Q04DX003 (ip), vehicle: saline 120 % of control | dose: 50.0 mg/kg/injection, schedule: Q01DX009 (ip), vehicle: saline 104 % of control | dose: 50.0 mg/kg/injection, schedule: Q04DX003 (ip), vehicle: saline 106 % of control | [5] 111 % of control

CC(=O)Nc1ccc(S(=O)(=O)c2ccc(N)cc2)cc1
inactive: dose: 12.5 mg/kg/injection, schedule: Q04DX002 (ip), vehicle: saline with Tween-80 105 % of control | dose: 25.0 mg/kg/injection, schedule: Q04DX002 (ip), vehicle: saline with Tween-80 109 % of control and 90 % of control | dose: 50.0 mg/kg/injection, schedule: Q04DX002 (ip), vehicle: saline with Tween-80 97 % of control | dose: 100.0 mg/kg/injection, schedule: Q04DX002 (ip), vehicle: saline with Tween-80 97 % of control and 102 % of control | dose: 200.0 mg/kg/injection, schedule: Q04DX002 (ip), vehicle: saline with Tween-80 109 % of control

C=C1C2CCC3C4(C)CC(OC5OC(CO)C(OS(=O)(=O)O)C(OS(=O)(=O)O)C5OC(=O)CCCC)CC(C(=O)O)(C(=O)O)C4CCC3(C2)C1O (centres undefined)
inactive: dose: 3.12 mg/kg/injection, schedule: Q04DX002 (ip), vehicle: saline 103 % of control | dose: 6.25 mg/kg/injection, schedule: Q04DX002 (ip), vehicle: saline 95 % of control

O=C(O)C1CCCCC1C(=O)Nc1cccc(C(F)(F)F)c1 (centres undefined)
inactive: dose: 12.5 mg/kg/injection, schedule: Q01DX009 (ip), vehicle: saline with Tween-80 102 % of control | dose: 25.0 mg/kg/injection, schedule: Q01DX009 (ip), vehicle: saline with Tween-80 101 % of control | dose: 50.0 mg/kg/injection, schedule: Q01DX009 (ip), vehicle: saline with Tween-80 88 % of control and 92 % of control | [1] 102 % of control | [2] 92 % of control

CC(CCF)C(N)C(=O)O (centres undefined)
inactive: dose: 3.0 mg/kg/injection, schedule: Q01DX009 (ip), vehicle: saline 98 % of control | dose: 6.0 mg/kg/injection, schedule: Q01DX009 (ip), vehicle: saline 100 % of control | dose: 10.0 mg/kg/injection, schedule: Q01DX001 (ip), vehicle: saline 91 % of control | dose: 12.0 mg/kg/injection, schedule: Q01DX009 (ip), vehicle: saline 102 % of control | [4] 100 % of control | dose: 19.0 mg/kg/injection, schedule: Q01DX001 (ip), vehicle: saline 95 % of control | dose: 37.5 mg/kg/injection, schedule: Q01DX001 (ip), vehicle: saline 113 % of control | dose: 38.0 mg/kg/injection, schedule: Q01DX001 (ip), vehicle: saline 91 % of control

C/C=C/C1OCCO1
inactive: dose: 100.0 mg/kg/injection, schedule: Q01DX009 (ip), vehicle: acetone 92 % of control

CC(C)C1NC(=O)C(N)C(C)OC(=O)C(C(C)C)N(C)C(=O)CN(C)C(=O)C2CCCN2C1=O (centres undefined) (tested in a mixture with another compound) (H-TVP[Sar][NMeV]; ester 1-C; configuration not given here)
inactive: dose: 0.1 mg/kg/injection, schedule: Q01DX001 (ip), vehicle: saline + alcohol 103 % of control | dose: 0.2 mg/kg/injection, schedule: Q01DX001 (ip), vehicle: saline + alcohol 107 % of control | dose: 0.4 mg/kg/injection, schedule: Q01DX001 (ip), vehicle: saline + alcohol 124 % of control | dose: 0.8 mg/kg/injection, schedule: Q01DX001 (ip), vehicle: saline + alcohol 122 % of control | dose: 15.6 micrograms/kg/injection, schedule: Q01DX009 (ip), vehicle: other 95 % of control | dose: 25.0 micrograms/kg/injection, schedule: Q01DX009 (ip), vehicle: saline + alcohol 106 % of control | dose: 31.3 micrograms/kg/injection, schedule: Q01DX009 (ip), vehicle: other 92 % of control | dose: 62.5 micrograms/kg/injection, schedule: Q01DX009 (ip), vehicle: other 97 % of control | dose: 75.0 micrograms/kg/injection, schedule: Q04DX003 (ip), vehicle: saline + alcohol 103 % of control | dose: 125.0 micrograms/kg/injection, schedule: Q01DX009 (ip), vehicle: other 105 % of control | dose: 150.0 micrograms/kg/injection, schedule: Q04DX003 (ip), vehicle: saline + alcohol 106 % of control | dose: 250.0 micrograms/kg/injection, schedule: Q01DX009 (ip), vehicle: other 121 % of control | dose: 300.0 micrograms/kg/injection, schedule: Q04DX003 (ip), vehicle: saline + alcohol 121 % of control | dose: 500.0 micrograms/kg/injection, schedule: Q01DX009 (ip), vehicle: other 103 % of control | dose: 1200.0 micrograms/kg/injection, schedule: Q04DX003 (ip), vehicle: saline + alcohol 116 % of control

CC1(C)N=C(N)N=C(N)N1c1cccc(OCCCOc2ccc(NC(=O)/C=C\C(=O)O)cc2)c1
inactive: dose: 100.0 mg/kg/injection, schedule: Q01DX001 (ip), vehicle: saline 102 % of control | dose: 200.0 mg/kg/injection, schedule: Q01DX001 (ip), vehicle: saline 101 % of control | dose: 400.0 mg/kg/injection, schedule: Q01DX001 (ip), vehicle: saline 102 % of control

COc1cccc(N(CCO)CCO)c1OC
inactive: dose: 3.75 mg/kg/injection, schedule: Q01DX Z (ip), vehicle: saline 93 % of control | dose: 7.5 mg/kg/injection, schedule: Q01DX Z (ip), vehicle: saline 93 % of control | dose: 15.5 mg/kg/injection, schedule: Q01DX Z (ip), vehicle: saline 97 % of control | dose: 31.0 mg/kg/injection, schedule: Q01DX Z (ip), vehicle: saline 97 % of control | dose: 62.5 mg/kg/injection, schedule: Q01DX Z (ip), vehicle: saline 96 % of control | dose: 125.0 mg/kg/injection, schedule: Q01DX Z (ip), vehicle: saline 101 % of control | dose: 250.0 mg/kg/injection, schedule: Q01DX Z (ip), vehicle: saline 97 % of control | dose: 500.0 mg/kg/injection, schedule: Q01DX Z (ip), vehicle: saline 101 % of control

CN(C)C(=N)C(=N)N(C)C
inactive: dose: 100.0 mg/kg/injection, schedule: Q01DX009 (ip), vehicle: saline 96 % of control | [5] 98 % of control | dose: 200.0 mg/kg/injection, schedule: Q01DX009 (ip), vehicle: saline 88 % of control | dose: 200.0 mg/kg/injection, schedule: Q04DX003 (ip), vehicle: saline 100 % of control | dose: 400.0 mg/kg/injection, schedule: Q01DX009 (ip), vehicle: saline 94 % of control | dose: 400.0 mg/kg/injection, schedule: Q04DX003 (ip), vehicle: saline 93 % of control

CC(C(=O)c1ccccc1)C(c1ccccc1)N1CCOCC1 (centres undefined)
inactive: [1] 106 % of control | [2] 101 % of control | [3] 100 % of control

COc1c([N+](=O)[O-])cc2c(c1C)OCOC2
inactive: dose: 12.5 mg/kg/injection, schedule: Q01DX009 (ip), vehicle: Klucel (hydroxypropylcellulose) (HPC) 95 % of control | dose: 25.0 mg/kg/injection, schedule: Q01DX009 (ip), vehicle: Klucel (hydroxypropylcellulose) (HPC) 95 % of control | dose: 50.0 mg/kg/injection, schedule: Q01DX009 (ip), vehicle: Klucel (hydroxypropylcellulose) (HPC) 95 % of control | dose: 100.0 mg/kg/injection, schedule: Q01DX001 (ip), vehicle: Klucel (hydroxypropylcellulose) (HPC) 92 % of control | dose: 200.0 mg/kg/injection, schedule: Q01DX001 (ip), vehicle: Klucel (hydroxypropylcellulose) (HPC) 93 % of control | dose: 400.0 mg/kg/injection, schedule: Q01DX001 (ip), vehicle: Klucel (hydroxypropylcellulose) (HPC) 102 % of control
